The record followed here is ChEMBL document CHEMBL3046956, “Photosynthetic Electron Transport Inhibitory Activity of 2-Aralkylamino-4-methyl-6-trifluoromethyl-1, 3, 5-triazine Derivatives” (J Pestic Sci, 1999).

The nature of one assay: Potency index, ratio of pI50 for simazine to pI50 for test compound against photosynthetic electron transport in Spinacia oleracea (spinach) thylakoids using oxygen electrode by Boger method.
Take `Cc1nc(NCc2ccc(Br)cc2)nc(C(F)(F)F)n1`: the Ratio amounted to 10.
On the same count and under the same terms, the result for `Cc1nc(NCc2ccc([N+](=O)[O-])cc2)nc(C(F)(F)F)n1` reads 10.
Consider `Cc1nc(NCc2ccc(C(F)(F)F)cc2)nc(C(F)(F)F)n1`, for which the Ratio was found to be 10.
`Cc1nc(NCc2ccc(F)cc2)nc(C(F)(F)F)n1`: the Ratio turned out to be 10.
As to `Cc1nc(NCc2ccc(Cl)cc2)nc(C(F)(F)F)n1`, the Ratio turned out to be 10.

A short description of the next assay: Inhibition of photosynthetic electron transport in Spinacia oleracea (spinach) thylakoids using oxygen electrode by Boger method.
Turning to `Cc1nc(NCc2ccccc2Cl)nc(C(F)(F)F)n1`, the pI50 is 5.95.
Take `Cc1nc(NCc2ccc(Cl)cc2)nc(C(F)(F)F)n1`: the pI50 worked out at 6.98.
